Experimental data from patent US20230404998A1, “Combination Therapies for Treating Cancer” (ASCENTAGE PHARMA (SUZHOU) CO., LTD., priority 2020, published 2023).

Experiments:
Settings in all cases: read-out: Anti-proliferation (IC50)
BaF3(Bcr-Abl) E459L = BaF3(Bcr-Abl) E459L (Homo sapiens, UniProt P00519, cells depend on it, form not given)
Protocol: (§1) The anti-proliferative effect was determined by a water-soluble tetrazolium (WST)-based assay using Cell Counting Kit-8 (CCK-8, #D3100L4057, Shanghai life ilab bio technology co., LTD, China). Cells were seeded in 96-well plates and treated with different concentrations of test articles. […] Each treatment was tested in triplicates. The plate was then cultured at 37° C. with 5% CO2 for 72 hours. At the end of treatments, 20 μl/well of CCK-8 reagent was directly added to each wells. The plate was then incubated at 37° C. with 5% CO2 for 2-4 h. The OD value was detected at 450 nm on a microplate reader (SpectraMax I3X, Molecular Devices, US). IC50 values were calculated with Graphpad Prism 7.0 software using nonlinear regression (curve fitting) type data analysis. For combination effect assay, the cells viability was normalized using the mean OD value of triplicated wells for the single agent control.

BaF3(Bcr-Abl) F311I = BaF3(Bcr-Abl) F311I (Homo sapiens, UniProt P00519, F311I, cells depend on it)
Protocol: as §1

[1] = molecular target: BaF3(Bcr-Abl) T315I-E255V (Homo sapiens, UniProt P00519, E255V/T315I, cells depend on it)
Protocol: as §1

[2] = molecular target: BaF3(Bcr-Abl) T315I-F317L (Homo sapiens, UniProt P00519, T315I/F317L, cells depend on it)
Protocol: as §1

BaF3(Bcr-Abl) M351T = BaF3(Bcr-Abl) M351T (Homo sapiens, UniProt P00519, M351T, cells depend on it)
Protocol: as §1

BaF3(Bcr-Abl) E453K = BaF3(Bcr-Abl) E453K (Homo sapiens, UniProt P00519, E453K, cells depend on it)
Protocol: as §1

BaF3(Bcr-Abl) T315I-255K = BaF3(Bcr-Abl) T315I-255K (Homo sapiens, UniProt P00519, E255K/T315I, cells depend on it)
Protocol: as §1

[3] = molecular target: BaF3(Bcr-Abl) G250E-V299L (Homo sapiens, UniProt P00519, G250E/V299L, cells depend on it)
Protocol: as §1

[4] = molecular target: BaF3(Bcr-Abl) T315I-F359V (Homo sapiens, UniProt P00519, T315I/F359V, cells depend on it)
Protocol: as §1

[5] = molecular target: BaF3(Bcr-Abl) T315I-Y253H (Homo sapiens, UniProt P00519, Y253H/T315I, cells depend on it)
Protocol: as §1

[6] = molecular target: BaF3(Bcr-Abl) T316I-M244V (Homo sapiens, UniProt P00519, M244V/T315I, cells depend on it)
Protocol: as §1

BaF3(Bcr-Abl) E255V = BaF3(Bcr-Abl) E255V (Homo sapiens, UniProt P00519, E255V, cells depend on it)
Protocol: as §1

BaF3(Bcr-Abl) T35I-F311I = BaF3(Bcr-Abl) T35I-F311I (Homo sapiens, UniProt P00519, F311I/T315I, cells depend on it)
Protocol: as §1

BaF3(Bcr-Abl) T3151 = BaF3(Bcr-Abl) T3151 (Homo sapiens, UniProt P00519, T315I, cells depend on it)
Protocol: as §1

BaF3(Bcr-Abl) M244V = BaF3(Bcr-Abl) M244V (Homo sapiens, UniProt P00519, M244V, cells depend on it)
Protocol: as §1

BaF3(Bcr-Abl) E255K = BaF3(Bcr-Abl) E255K (Homo sapiens, UniProt P00519, E255K, cells depend on it)
Protocol: as §1

BaF3(Bcr-Abl) 7253H = BaF3(Bcr-Abl) 7253H (Homo sapiens, UniProt P00519, Y253H, cells depend on it)
Protocol: as §1

[7] = molecular target: BaF3(Bcr-Abl) F317L-M351T (Homo sapiens, UniProt P00519, F317L/M351T, cells depend on it)
Protocol: as §1

BaF3(Bcr-Abl) V299L = BaF3(Bcr-Abl) V299L (Homo sapiens, UniProt P00519, V299L, cells depend on it)
Protocol: as §1

[8] = molecular target: BaF3(Bcr-Abl) T315I-H396R (Homo sapiens, UniProt P00519, T315I/H396R, cells depend on it)
Protocol: as §1

BaF3(Bcr-Abl) G250E = BaF3(Bcr-Abl) G250E (Homo sapiens, UniProt P00519, G250E, cells depend on it)
Protocol: as §1

BaF3(Bcr-Abl) T315M = BaF3(Bcr-Abl) T315M (Homo sapiens, UniProt P00519, T315M, cells depend on it)
Protocol: as §1

[9] = molecular target: BaF3(Bcr-Abl) F317L-F359V (Homo sapiens, UniProt P00519, F317L/F359V, cells depend on it)
Protocol: as §1

BaF3(Bcr-Abl) F359V = BaF3(Bcr-Abl) F359V (Homo sapiens, UniProt P00519, F359V, cells depend on it)
Protocol: as §1

[10] = molecular target: BaF3(Bcr-Abl) Y253H-E255V (Homo sapiens, UniProt P00519, Y253H/E255V, cells depend on it)
Protocol: as §1

[11] = molecular target: BaF3(Bcr-Abl) T315I-E453K (Homo sapiens, UniProt P00519, T315I/E453K, cells depend on it)
Protocol: as §1

Cc1ccc(C(=O)Nc2ccc(CN3CCN(C)CC3)c(C(F)(F)F)c2)cc1C#Cc1cnc2[nH]ncc2c1 [HQP1351, 3-(2-(1H-pyrazolo[3,4-b]pyridin-5-yl)ethynyl)-4-methyl-N-(4-((4-methylpiperazin-1-yl)methyl)-3-(trifluoromethyl)phenyl)-benzamide]
GI50 (BaF3(Bcr-Abl) E459L): 106 nM | GI50 (BaF3(Bcr-Abl) F311I): 23 ± 13 nM | GI50 [1]: 26 ± 11 nM | GI50 [2]: 117 ± 23 nM | GI50 (BaF3(Bcr-Abl) M351T): 9 ± 1 nM | GI50 (BaF3(Bcr-Abl) E453K): 3 nM | GI50 (BaF3(Bcr-Abl) T315I-255K): 40 ± 5 nM | GI50 [3]: 14 ± 2 nM | GI50 [4]: 20 ± 10 nM | GI50 [5]: 114 ± 1 nM | GI50 [6]: 76 ± 53 nM | GI50 (BaF3(Bcr-Abl) E255V): 27 ± 11 nM | GI50 (BaF3(Bcr-Abl) T35I-F311I): 78 ± 46 nM | GI50 (BaF3(Bcr-Abl) T3151): 24 ± 10 nM | GI50 (BaF3(Bcr-Abl) M244V): 41 ± 8 nM | GI50 (BaF3(Bcr-Abl) E255K): 22 ± 13 nM | GI50 (BaF3(Bcr-Abl) 7253H): 7 ± 1 nM | GI50 [7]: 32 ± 25 nM | GI50 (BaF3(Bcr-Abl) V299L): 8 ± 4 nM | GI50 [8]: 79 ± 54 nM | GI50 (BaF3(Bcr-Abl) G250E): 29 ± 4 nM | GI50 (BaF3(Bcr-Abl) T315M): 217 ± 131 nM | GI50 [9]: 25 ± 13 nM | GI50 (BaF3(Bcr-Abl) F359V): 50 ± 16 nM | GI50 [10]: 122 nM | GI50 [11]: 61 ± 27 nM
